Assay results from patent publication US11466044B2 (WAYNE STATE UNIVERSITY, priority 2017, dated 2022).
Values after ≈ are worked out from the molar mass of the structure shown. Where a name gives a salt, the structure may show the parent alone. Read-outs that look alike come from different tables or passages of the source.

How the values were obtained:
[1] = tested on: A1555G mutant mitochondrial ribosome (human chimeric); test: in-vitro translation assay, human chimeric ribosomes, A1555G mutant mitochondrial decoding site; format: biochemical; settings: Table 3 (Example 3)
Text: (§1) The antiribosomal activity of these compounds was investigated with cell-free translation assays using both wild type bacterial ribosomes and hybrid ribosomes carrying eukaryotic decoding A sites enabling the prediction of selectivity.

[2] = tested on: wild type bacterial ribosomes; test: in-vitro translation assay, bacterial ribosomes; format: biochemical; settings: for IC50: bacterial ribosome, Table 4 (Example 3), read-out: IC50 Bac; for selectivity for the bacterial ribosome over mitochondrial (wild type, A1555G mutant) and cytosolic ribosomes, in words: compared with the parent compound
Text: as §1

MRSA = test: MIC by broth microdilution, MRSA isolates; format: cell-based; settings: Staphylococcus aureus, MRSA, Table 1 (Example 3)
N. gonorrhoeae = test: Disk diffusion, N. gonorrhoeae; format: cell-based; settings: Neisseria gonorrhoeae
E coli wild type = test: MIC by broth microdilution, wild type E coli; format: cell-based; settings: for MIC: Escherichia coli; for antibacterial activity, in words: MRSA and E coli, compared with the parent compound
P aeruginosa = test: MIC by broth microdilution, P aeruginosa isolates; format: cell-based, Pseudomonas aeruginosa; settings: strain AG220 Pseudomonas aeruginosa ATCC27853; read-out: MIC AG220 P. aerugin
[3] = tested on: E coli carrying specific resistance determinants; test: MIC by broth microdilution, E coli carrying specific resistance determinants; format: cell-based; settings: for MIC: Escherichia coli
[4] = tested on: Klebsiella pneumonia AG215; test: MIC by broth microdilution, Klebsiella pneumonia; format: cell-based; settings: Klebsiella pneumoniae; strain AG215 Klebsiella pneumonia; read-out: MIC AG215 K. pneumon
[5] = tested on: Acinetobacter baumannii pittii AG225; test: MIC by broth microdilution, Acinetobacter baumannii; format: cell-based; settings: strain AG225 Acinetobacter baumannii pittii
M. smegmatis SZ380 = test: MIC by broth microdilution, M. smegmatis; settings: Mycolicibacterium smegmatis
[6] = tested on: Enterobacter cloacae AG290; test: MIC by broth microdilution, Enterobacter cloacae; format: cell-based; settings: strain AG290 Enterobacter cloacae; read-out: MIC AG290 E. cloacae
M. abscessus = test: MIC by broth microdilution, M. abscessus; format: cell-based; settings: Mycobacteroides abscessus
[7] = tested on: mitochondrial ribosome (human chimeric); format: biochemical; settings: for Selectivity for Binding to the Bacterial Ribosome over the Mitochondrial Ribosome: Table 3 (Example 3); for IC50: mitochondrial, Table 4 (Example 3), read-out: IC50 Mit
Text: as §1

[8] = tested on: cytosolic ribosome (human chimeric); format: biochemical; settings: for Selectivity for Binding to the Bacterial Ribosome over the Cytosolic Ribosome: Table 3 (Example 3); for IC50: cytosolic, Table 4 (Example 3), read-out: IC50 Cyt
Text: as §1

[9] = Casinelli et al., J Antibiotics 1978, 31, 378 and 382; cited from earlier work
[10] = clinical isolate AG038, read-out: MIC MRSA AG038
[11] = clinical isolate AG039, read-out: MIC MRSA AG039
[12] = clinical isolate AG042, read-out: MIC MRSA AG042
[13] = AG006 Wild type, Table 2 (Example 3), read-out: MIC E coli AG006 Wild type
[14] = AG104 Wild type, Table 2 (Example 3), read-out: MIC E coli AG104 Wild type
[15] = ATCC25922, strain AG212 E. coli (ATCC25922), read-out: MIC AG212 E. coli
[16] = WT, Table 4 (Example 3), read-out: MIC E. coli WT
[17] = WT, Table 5 (Example 3), read-out: MIC E. coli WT
[18] = clinical isolate AG001, Table 1 (Example 3), read-out: MIC E coli AG001
[19] = clinical isolate AG003, Table 1 (Example 3), read-out: MIC E coli AG003
[20] = clinical isolate AG055, Table 1 (Example 3), read-out: MIC E coli AG055
[21] = read-out: MIC E coli AG106 AAC(2′)
[22] = read-out: MIC E. coli AAC(2′) AG106
[23] = read-out: MIC E. coli AAC(2′) pH434
[24] = read-out: MIC E. coli AG106 AAC(2′)-Ia
[25] = read-out: MIC E. coli pGB2armA armA
[26] = read-out: MIC E. coli pH434 AAC(2′)-Ib
[27] = SZ380, read-out: MIC M. smegmatis SZ380 WT, SZ380 WT, Table 5 (Example 3)
[28] = SZ380, read-out: MIC SZ380 M. smegmatis, strain SZ380 Mycobacterium smegmatis
[29] = ATCC19977, ATCC 19977 WT, Table 5 (Example 3), read-out: MIC M. abscessus ATCC 19977 WT
[30] = read-out: MIC M. abscessus engineered Δeis2
[31] = ATCC, Table 4 (Example 3), read-out: MIC M. abscessus ATCC
[32] = Clin. Isol., Table 4 (Example 3), read-out: MIC M. abscessus Clin. Isol.
[33] = clinical isolate AG044, read-out: MIC MRSA AG044

SMILES | Selectivity for Binding to the Bacterial Ribosome over the Mutant Mitochondrial Ribosome [1] | IC50 [2] [µM] | selectivity for the bacterial ribosome over mitochondrial (wild type, A1555G mutant) and cytosolic ribosomes, in words [2] | MIC (MRSA; [10]) [µg/mL] | MIC (MRSA; [11]) [µg/mL] | MIC (MRSA; [12]) [µg/mL] | MIC (E coli wild type; [15]) [µg/mL] | MIC (E coli wild type; [16]) [µg/mL] | MIC (E coli wild type; [17]) [µg/mL] | MIC (E coli wild type; [18]) [µg/mL] | MIC (E coli wild type; [19]) [µg/mL] | MIC (E coli wild type; [20]) [µg/mL] | MIC (P aeruginosa) [µg/mL] | MIC [3, 22] [µg/mL] | MIC [3, 23] [µg/mL] | MIC [3, 25] [µg/mL] | MIC [3, 26] [µg/mL] | MIC [4] [µg/mL] | MIC [5] [µg/mL] | MIC (M. smegmatis SZ380; [27]) [µg/mL] | other results
NCC1OC(OC2C(N)CC(N)C(O)C2OC2OC(CO)C(OC3OC(CN)C(O)C(O)C3N)C2O)CC(O)C1O (stereo not shown) [Compound 173, 2′-Deamino-neomycin acetate salt] | 31 | 0.03 | increased selectivity for the bacterial ribosome | 1 | 32 | 32 | 1 | 1 | 1 | 2 | 1 to 2 | 2 | > 64 | 1 | 8 | 1 | 8 | 0.5 | 1 | 0.25 | zone of inhibition at 25 nmol/disc (N. gonorrhoeae): 10 mm; MIC (E coli wild type; [13]): 1 µg/mL; MIC (E coli wild type; [14]): 0.5 to 1 µg/mL; antibacterial activity, in words (E coli wild type): little to no loss of antibacterial activity; effect of the AAC(2′) resistance determinant, in words [3]: overcomes the effect of AAC(2′); MIC [3, 21]: 1 µg/mL; MIC [3, 24]: 1 µg/mL; MIC (M. smegmatis SZ380; [28]): 0.25 µg/mL; MIC [6]: 1 µg/mL; MIC (M. abscessus; [29]): 4 µg/mL; MIC (M. abscessus; [30]): 0.125 µg/mL; MIC (M. abscessus; [31]): 4 µg/mL; MIC (M. abscessus; [32]): 8 µg/mL; Selectivity for Binding to the Bacterial Ribosome over the Mitochondrial Ribosome [7]: 831; IC50 [7]: 22 µM; Selectivity for Binding to the Bacterial Ribosome over the Cytosolic Ribosome [8]: 3188; IC50 [8]: 85 µM
NCC1OC(OC2C(CO)OC(OC3C(O)C(N)CC(N)C3OC3OC(CN)C(O)C(O)C3O)C2O)C(N)C(O)C1O (stereo not shown) [Compound 119] | 94 | 0.03 | increased selectivity for the bacterial ribosome | 2 (≈ 3.25 µM) | > 128 | > 128 | 1 (≈ 1.62 µM) | 0.5 to 1 (≈ 0.812 to 1.62 µM) | 0.5 to 1 (≈ 0.812 to 1.62 µM) | 2 to 4 (≈ 3.25 to 6.5 µM) | 2 to 4 (≈ 3.25 to 6.5 µM) | 2 to 4 (≈ 3.25 to 6.5 µM) | > 64 | 1 (≈ 1.62 µM) | 4 (≈ 6.5 µM) | 1 (≈ 1.62 µM) | 4 (≈ 6.5 µM) | 0.5 (≈ 0.812 µM) | 1 (≈ 1.62 µM) | 0.5 (≈ 0.812 µM) | MIC (MRSA; [33]): 2 µg/mL (≈ 3.25 µM); MIC (E coli wild type; [13]): 0.5 µg/mL (≈ 0.812 µM); MIC (E coli wild type; [14]): 1 µg/mL (≈ 1.62 µM); antibacterial activity, in words (E coli wild type): little to no loss of antibacterial activity; effect of the AAC(2′) resistance determinant, in words [3]: overcomes the effect of AAC(2′); MIC [3, 21]: 1 µg/mL (≈ 1.62 µM); MIC [3, 24]: 1 µg/mL (≈ 1.62 µM); MIC (M. smegmatis SZ380; [28]): 0.5 µg/mL (≈ 0.812 µM); MIC [6]: 1 µg/mL (≈ 1.62 µM); antibiotic potency compared with the parent compounds, in words [9]: comparable antibiotic potency to the parent compounds; MIC (M. abscessus; [29]): 2 µg/mL (≈ 3.25 µM); MIC (M. abscessus; [30]): 0.125 µg/mL (≈ 0.203 µM); MIC (M. abscessus; [31]): 2 µg/mL (≈ 3.25 µM); MIC (M. abscessus; [32]): 4 µg/mL (≈ 6.5 µM); Selectivity for Binding to the Bacterial Ribosome over the Mitochondrial Ribosome [7]: 1222; IC50 [7]: 36 µM; Selectivity for Binding to the Bacterial Ribosome over the Cytosolic Ribosome [8]: 3667; IC50 [8]: 108 µM
CCNC1C(OC2C(N)CC(N)C(O)C2OC2OC(CO)C(OC3OC(CN)C(O)C(O)C3N)C2O)OC(CO)C(O)C1O (stereo not shown) [Compound 127] | 1804 | 0.03 | increased selectivity for the bacterial ribosome | 8 (≈ 12.4 µM) | > 128 | > 128 | 4 (≈ 6.21 µM) | 2 (≈ 3.11 µM) | 2 (≈ 3.11 µM) | 16 (≈ 24.9 µM) | 16 (≈ 24.9 µM) | 16 (≈ 24.9 µM) | > 64 | 2 (≈ 3.11 µM) | 4 (≈ 6.21 µM) | 4 to 8 (≈ 6.21 to 12.4 µM) | 4 (≈ 6.21 µM) | 2 (≈ 3.11 µM) | 4 (≈ 6.21 µM) | 4 (≈ 6.21 µM) | MIC (MRSA; [33]): 4 to 8 µg/mL (≈ 6.21 to 12.4 µM); zone of inhibition at 25 nmol/disc (N. gonorrhoeae): 9 mm; MIC (M. smegmatis SZ380; [28]): 4 µg/mL (≈ 6.21 µM); MIC [6]: 2 to 4 µg/mL (≈ 3.11 to 6.21 µM); antibiotic potency compared with the parent compounds, in words [9]: comparable antibiotic potency to the parent compounds; MIC (M. abscessus; [29]): 32 µg/mL (≈ 49.7 µM); MIC (M. abscessus; [30]): 0.5 µg/mL (≈ 0.777 µM); MIC (M. abscessus; [31]): 32 µg/mL (≈ 49.7 µM); MIC (M. abscessus; [32]): 64 µg/mL (≈ 99.4 µM); Selectivity for Binding to the Bacterial Ribosome over the Mitochondrial Ribosome [7]: 4715; IC50 [7]: 141 µM; Selectivity for Binding to the Bacterial Ribosome over the Cytosolic Ribosome [8]: 918; IC50 [8]: 28 µM
CCNC1C(OC2C(N)CC(N)C(O)C2OC2OC(CO)C(OC3OC(CN)C(O)C(O)C3N)C2O)OC(CN)C(O)C1O (stereo not shown) [Compound 172, 2′-N-Ethyl-neomycin acetate salt] | 111 | 0.01 | increased selectivity for the bacterial ribosome | 0.5 | > 32 | > 32 | 1 | 0.5 to 1 | 0.5 to 1 | 1 to 2 | 1 | 1 | > 32 | 0.5 | 1 | 1 | 1 | 0.5 | 1 | < 0.063 | zone of inhibition at 25 nmol/disc (N. gonorrhoeae): 9 mm; MIC (E coli wild type; [13]): 0.5 µg/mL; MIC (E coli wild type; [14]): 0.5 µg/mL; MIC [3, 21]: 0.5 µg/mL; MIC [3, 24]: 0.5 µg/mL; MIC (M. smegmatis SZ380; [28]): < 0.0625 µg/mL; MIC [6]: 0.5 to 1 µg/mL; MIC (M. abscessus; [29]): 0.25 µg/mL; MIC (M. abscessus; [30]): 0.063 µg/mL; MIC (M. abscessus; [31]): 0.25 µg/mL; MIC (M. abscessus; [32]): 0.5 µg/mL; Selectivity for Binding to the Bacterial Ribosome over the Mitochondrial Ribosome [7]: 850; IC50 [7]: 11 µM; Selectivity for Binding to the Bacterial Ribosome over the Cytosolic Ribosome [8]: 3111; IC50 [8]: 43 µM
CCCNC1C(OC2C(N)CC(N)C(O)C2OC2OC(CO)C(OC3OC(CN)C(O)C(O)C3N)C2O)OC(CO)C(O)C1O (stereo not shown) [Compound 128, 2′-N-Propyl-paromomycin acetate salt] | 763 | 0.05 | increased selectivity for the bacterial ribosome | 8 to 16 | > 128 | > 128 | 4 | 2 | 2 | 16 | 16 | 16 | > 64 | 2 | 4 | 4 to 8 | 4 | 2 | 4 | 2 | MIC (MRSA; [33]): 4 µg/mL; zone of inhibition at 25 nmol/disc (N. gonorrhoeae): 11 mm; MIC (M. smegmatis SZ380; [28]): 2 µg/mL; MIC [6]: 2 µg/mL; MIC (M. abscessus; [29]): 32 µg/mL; MIC (M. abscessus; [30]): 1 µg/mL; MIC (M. abscessus; [31]): 32 µg/mL; MIC (M. abscessus; [32]): 64 µg/mL; Selectivity for Binding to the Bacterial Ribosome over the Mitochondrial Ribosome [7]: 3066; IC50 [7]: 153 µM; Selectivity for Binding to the Bacterial Ribosome over the Cytosolic Ribosome [8]: 425; IC50 [8]: 21 µM
